From patent US20130158098A1, “Alkenyl Substituted Cycloaliphatic Compounds as Chemical Inducers of Proximity” (priority 2010, published 2013)

Tests used:
[1] = molecular target: T1, VP16-PYLcs and Gal4 DBD-ABIcs (Arabidopsis thaliana, UniProt Q8VZS8); experiment: ABA-induced GFP reporter activation in various cell lines; type: cell-based; conditions: 100 μM, 24 h; CHO, HEK 293, Cos7, NIH3T3, TC1 cells
T1 construct: HA (from the reverse primer); expressed in transfected cells; host or cells: CHO; also HEK 293/293T, NIH3T3, COS7, B35, Jurkat, E14, TC1, MEF
T1 sequence (Q8VZS8 33-209): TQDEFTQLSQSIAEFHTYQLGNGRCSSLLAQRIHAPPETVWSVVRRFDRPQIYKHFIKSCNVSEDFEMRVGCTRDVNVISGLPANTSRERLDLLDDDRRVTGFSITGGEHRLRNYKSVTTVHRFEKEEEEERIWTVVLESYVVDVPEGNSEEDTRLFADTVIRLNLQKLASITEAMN
T1 sequence (P49597 126-423 partner): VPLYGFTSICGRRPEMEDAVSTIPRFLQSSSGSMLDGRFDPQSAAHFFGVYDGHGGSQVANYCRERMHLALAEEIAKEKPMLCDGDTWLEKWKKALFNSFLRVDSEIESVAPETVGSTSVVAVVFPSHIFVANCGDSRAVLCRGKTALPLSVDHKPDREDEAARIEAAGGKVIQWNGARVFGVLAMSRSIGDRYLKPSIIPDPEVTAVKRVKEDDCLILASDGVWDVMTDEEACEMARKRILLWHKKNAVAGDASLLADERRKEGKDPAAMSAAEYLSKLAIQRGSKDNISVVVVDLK
Source text: Activation construct: A fragment of PYL1 (one of PYR/PYL/RCAR members) (aa 33-209, also referred to as “PYLcs”) was linked to a transcriptional activation domain and a fragment of ABI1 (one of PP2C members) (aa 126-423, SEQ ID NO:2, also referred to as “ABIcs”) was linked to a DNA binding domain using recombinant DNA methods. In the constructs illustrated in FIG. 1 and FIG. 2, PYL1 (“PYLcs”) is fused to the VP16 activation domain and ABI1 (“ABIcs”) is fused to the Gal4 DNA binding domain. These two regulatory elements are linked by IRES and driven by the SV40 early promoter. Reporter constructs: Full length Luciferase is driven by Fos gene minimal promoter with 5 copies of Gal4 DNA binding sites immediately upstream of Fos promoter. GFP reporter is driven by IL2 minimal promoter with 5×Gal4 DNA binding sites upstream.
ABA regulated transcriptional activation is applicable to various cell lines from different origins besides CHO cells, as shown in FIG. 7. […] 100 μM of ABA was then added to the cell culture and cells were observed under fluorescence microscope for GFP expression after another 24 h.

[2] = molecular target: T2, GFP-PYLcs and ABIcs localization fusion proteins (Arabidopsis thaliana, UniProt Q8VZS8); experiment: ABA-induced subcellular relocalization of PYLcs fusion proteins; type: cell-based
T2 construct: A fragment of PYL1 (aa 33-209) is fused to full length GFP or SOS; HA (from the reverse primer); expressed in transfected cells; host or cells: HEK 293 / HEK 293T
T2 sequence (Q8VZS8 33-209): T1 sequence (Q8VZS8 33-209)
T2 sequence (P49597 126-423 partner): T1 sequence (P49597 126-423 partner)
Description: A fragment of ABI1 (aa 126-423) is either fused to full length mouse Brg, full length mouse Numb, full length human CD4 or myristoylation signal. A fragment of PYL1 (aa 33-209) is fused to full length GFP or SOS. Full length SOS is fused either to myristoylation signal or three copies of FKBP12.
Cells grown on glass coverslips were washed in phosphate-buffered saline (PBS) and fixed with 4% paraformaldehyde (PFA, prepared in PBS) at room temperature for 20 min. After three 5-min washes in PBS, the cells were permeabilized with 5% normal goat serum and 0.1% Triton X-100 in PBS at room temperature for 30 min and incubated with primary antibodies (FLAG antibody M2, Agilent, cat. #200472-21) at 4° C. overnight in the same buffer. The slides were subsequently washed three times with PBS (5 min each wash) and then incubated with Alexa fluorophore 594-conjugated secondary antibodies (Molecular Probes) for 1 hour at room temperature in the dark. Slides were washed three times in PBS for 5 min. Finally, the slides were mounted in Vectashield containing 4′,6-diamidino-2-phenylindole (DAPI; H-1500, Vector Laboratories) and imaged (63×) with a Leica DM5000B microscope.
The area and integrated fluorescence intensity of the whole cell and the nucleus were measured with Fiji (an open-source image processing package based on ImageJ) for images from the cytoplasmic or nuclear localization experiments. The area and the integrated fluorescence intensity of the cytoplasm were calculated by subtracting the value of the nucleus from the whole cell. The mean fluorescence intensity of nucleus or cytoplasm was calculated by dividing the integrated fluorescence intensity with the area of each subcellular compartment. The ratio between nuclear or cytoplasmic distribution was calculated by comparing the corresponding mean fluorescence intensity. Twenty cells were measured in each experiment.
The activities of proteins are often regulated by their subcellular localization. In another variation of domain reconstitution, the ability of ABA-induced proximity to control the localization of a chosen protein was tested. Fusions of ABIcs to specific subcellular localization domains were constructed and ABA was used to dimerize these ABIcs localization fusion proteins to green fluorescent protein (GFP)-fused PYLcs. The relocation of GFP-PYLcs to four subcellular locations was induced by fusing ABIcs to (i) Numb to serve as a cytoplasmic localization partner (Dho, S. E. et al. (1999) Characterization of four mammalian Numb protein isoforms: Identification of cytoplasmic and membrane-associated variants of the phosphotyrosine binding domain. J. Biol. Chem. 274, 33097-33104), (ii) to a nuclear localization sequence (NLS) or to Brg1 (Brm/SWI2-related gene 1) to serve as nuclear localization partners (Khavari, P. A. et al. (1993) BRG1 contains a conserved domain of the SWI2/SNF2 family necessary for normal mitotic growth and transcription. Nature 366, 170-174), (iii) to CD4 (cluster of differentiation 4) to serve as a plasma membrane localization partner (Sattentau, Q. J. et al. (1988) The CD4 antigen: Physiological ligand and HIV receptor. Cell 52, 631-633), or (iv) to a myristoylation (myr) sequence to serve as a plasma membrane and an intracellular membrane localization partner (Holsinger, L. J. et al. (1995) Signal transduction in T lymphocytes using a conditional allele of Sos. Proc. Natl. Acad. Sci. U.S.A. 92, 9810-9814)).

CC1=CC(=O)CC(C)(C)C1(O)/C=C/C(C)=C/C(=O)O (centres unmarked) [ABA, abscisic acid]
GFP reporter expression [1]: only expressed after ABA was added
time to relocalization of mCherry-PYLcs to Brg-ABIcs (nucleus) ([2]; 293T cells, ABA and Rap added together): ≤ 30 min
membrane localization of GFP-PYLcs to myr-ABIcs, specificity ([2]; 293T cells, ABA or Rap added): observed only when the matching small molecule was added
time to relocation of GFP-PYLcs to the nucleus or membrane ([2]; Brg1-ABIcs or CD4-ABIcs, HEK 293T cells): ≤ 30 min
time to cytoplasmic accumulation of GFP-PYLcs ([2]; Numb-ABIcs, HEK 293T cells): ≤ 30 min
